Assay in all cases: biochemical
One experiment deals with T1, BIKE (Homo sapiens, UniProt Q9NSY1).
T1 construct: gene BMP2K; catalytic domain-containing construct
The arrangement: Thermal shift assay (DSF, SYPRO Orange), 2 uM kinase domain, mean delta Tm of triplicates versus DMSO. As to conditions: read-out: BIKE. How it is done:
(§1) All measurements were performed in triplicate and mean values were reported for all compounds (Table S1). […] However, NAKs are often omitted from selectivity panels, including commercial screens.

The target in the next experiment is T2, GAK (Homo sapiens, UniProt O14976).
T2 construct: catalytic domain-containing construct
T2 sequence (O14976 1-1311): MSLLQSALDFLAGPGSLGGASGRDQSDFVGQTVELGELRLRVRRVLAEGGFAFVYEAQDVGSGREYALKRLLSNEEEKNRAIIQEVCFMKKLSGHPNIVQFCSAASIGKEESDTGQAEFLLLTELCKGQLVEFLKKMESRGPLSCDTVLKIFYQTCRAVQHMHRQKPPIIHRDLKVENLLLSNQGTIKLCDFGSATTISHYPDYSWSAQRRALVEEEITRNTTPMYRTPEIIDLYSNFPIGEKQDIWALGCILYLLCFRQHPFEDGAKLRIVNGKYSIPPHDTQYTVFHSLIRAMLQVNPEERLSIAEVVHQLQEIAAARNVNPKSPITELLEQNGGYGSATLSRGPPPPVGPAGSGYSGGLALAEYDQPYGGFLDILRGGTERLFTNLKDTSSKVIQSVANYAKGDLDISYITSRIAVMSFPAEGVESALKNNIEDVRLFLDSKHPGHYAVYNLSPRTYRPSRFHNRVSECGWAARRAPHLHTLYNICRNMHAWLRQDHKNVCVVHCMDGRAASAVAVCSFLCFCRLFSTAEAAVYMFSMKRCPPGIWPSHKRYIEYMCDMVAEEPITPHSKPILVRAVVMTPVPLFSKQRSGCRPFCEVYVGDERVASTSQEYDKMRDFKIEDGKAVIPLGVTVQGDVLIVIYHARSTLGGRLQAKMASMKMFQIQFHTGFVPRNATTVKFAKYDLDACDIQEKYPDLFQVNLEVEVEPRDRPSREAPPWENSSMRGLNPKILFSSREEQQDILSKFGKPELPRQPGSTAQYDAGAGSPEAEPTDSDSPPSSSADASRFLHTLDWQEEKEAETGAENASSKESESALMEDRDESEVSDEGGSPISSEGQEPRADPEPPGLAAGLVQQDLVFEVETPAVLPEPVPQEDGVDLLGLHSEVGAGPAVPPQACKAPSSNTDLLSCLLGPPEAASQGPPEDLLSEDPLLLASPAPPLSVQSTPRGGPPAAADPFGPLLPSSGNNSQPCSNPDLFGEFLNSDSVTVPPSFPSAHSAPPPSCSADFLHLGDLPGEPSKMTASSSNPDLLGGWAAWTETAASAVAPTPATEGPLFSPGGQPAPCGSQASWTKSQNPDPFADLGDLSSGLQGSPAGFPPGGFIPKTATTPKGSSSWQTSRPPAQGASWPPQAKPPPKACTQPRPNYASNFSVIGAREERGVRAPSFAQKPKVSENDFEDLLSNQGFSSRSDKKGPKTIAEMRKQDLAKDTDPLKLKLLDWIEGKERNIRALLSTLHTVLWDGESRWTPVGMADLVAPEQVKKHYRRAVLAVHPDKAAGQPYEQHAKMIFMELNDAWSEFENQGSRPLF
The arrangement: Thermal shift assay (DSF, SYPRO Orange), 2 uM kinase domain, mean delta Tm of triplicates versus DMSO. Particulars: read-out: GAK. How it is done: as §1

The target of the next experiment is T3, MPSK1 (Homo sapiens, UniProt O75716).
T3 construct: gene STK16; catalytic domain-containing construct
Also noted: Thermal shift assay (DSF, SYPRO Orange), 2 uM kinase domain, mean delta Tm of triplicates versus DMSO. Particulars: for ΔTm at 12.5 µM: read-out: MPSK1. How it is done:
as §1

The target in the next experiment is AAK1 (Homo sapiens, UniProt Q2M2I8). The arrangement: kinase domain; Thermal shift assay (DSF, SYPRO Orange), 2 uM kinase domain, mean delta Tm of triplicates versus DMSO. As to conditions: for ΔTm at 12.5 µM: read-out: AAK1. As for the experimental part: as §1

The structures appear in SMILES notation.

T3 sequence (O75716 whole entry, the tested form may be a part): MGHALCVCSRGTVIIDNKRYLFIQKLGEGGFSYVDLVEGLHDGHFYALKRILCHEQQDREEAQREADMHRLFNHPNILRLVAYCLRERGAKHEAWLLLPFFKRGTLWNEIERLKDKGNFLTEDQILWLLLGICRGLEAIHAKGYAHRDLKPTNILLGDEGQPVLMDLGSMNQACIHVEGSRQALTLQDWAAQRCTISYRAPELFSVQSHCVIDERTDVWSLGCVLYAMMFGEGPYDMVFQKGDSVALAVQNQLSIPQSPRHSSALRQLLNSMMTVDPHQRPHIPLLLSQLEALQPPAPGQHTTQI
T1 sequence (Q9NSY1 whole entry, the tested form may be a part): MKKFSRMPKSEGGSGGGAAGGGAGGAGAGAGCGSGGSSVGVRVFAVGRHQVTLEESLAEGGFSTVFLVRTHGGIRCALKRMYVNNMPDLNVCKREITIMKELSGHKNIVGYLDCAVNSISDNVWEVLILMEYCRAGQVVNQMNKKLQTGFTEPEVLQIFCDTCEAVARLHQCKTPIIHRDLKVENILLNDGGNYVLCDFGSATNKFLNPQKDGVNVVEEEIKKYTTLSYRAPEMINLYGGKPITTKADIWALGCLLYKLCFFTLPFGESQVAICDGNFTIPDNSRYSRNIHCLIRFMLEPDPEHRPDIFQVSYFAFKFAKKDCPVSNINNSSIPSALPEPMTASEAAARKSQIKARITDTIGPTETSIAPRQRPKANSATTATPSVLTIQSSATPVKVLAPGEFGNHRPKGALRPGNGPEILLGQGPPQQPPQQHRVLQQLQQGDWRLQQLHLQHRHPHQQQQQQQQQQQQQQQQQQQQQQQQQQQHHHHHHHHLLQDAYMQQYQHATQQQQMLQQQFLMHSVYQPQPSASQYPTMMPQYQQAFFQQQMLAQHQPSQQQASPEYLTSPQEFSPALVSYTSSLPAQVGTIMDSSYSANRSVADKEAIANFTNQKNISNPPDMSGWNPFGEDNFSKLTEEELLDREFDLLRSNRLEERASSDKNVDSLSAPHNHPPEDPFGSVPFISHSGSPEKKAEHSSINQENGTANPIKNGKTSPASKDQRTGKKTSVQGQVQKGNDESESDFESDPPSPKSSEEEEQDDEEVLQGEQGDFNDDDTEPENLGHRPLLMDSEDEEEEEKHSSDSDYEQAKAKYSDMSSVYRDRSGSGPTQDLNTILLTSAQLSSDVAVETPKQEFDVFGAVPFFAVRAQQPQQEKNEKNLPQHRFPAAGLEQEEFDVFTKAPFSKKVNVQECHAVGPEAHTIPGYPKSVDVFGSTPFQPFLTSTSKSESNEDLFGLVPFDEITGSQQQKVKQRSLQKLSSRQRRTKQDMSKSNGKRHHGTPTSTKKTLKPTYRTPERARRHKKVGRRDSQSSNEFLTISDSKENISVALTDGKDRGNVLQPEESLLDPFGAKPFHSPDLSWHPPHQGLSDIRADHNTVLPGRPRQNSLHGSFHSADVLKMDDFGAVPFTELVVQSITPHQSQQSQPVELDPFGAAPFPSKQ
AAK1, sequence (Q2M2I8 27-365 limits assumed): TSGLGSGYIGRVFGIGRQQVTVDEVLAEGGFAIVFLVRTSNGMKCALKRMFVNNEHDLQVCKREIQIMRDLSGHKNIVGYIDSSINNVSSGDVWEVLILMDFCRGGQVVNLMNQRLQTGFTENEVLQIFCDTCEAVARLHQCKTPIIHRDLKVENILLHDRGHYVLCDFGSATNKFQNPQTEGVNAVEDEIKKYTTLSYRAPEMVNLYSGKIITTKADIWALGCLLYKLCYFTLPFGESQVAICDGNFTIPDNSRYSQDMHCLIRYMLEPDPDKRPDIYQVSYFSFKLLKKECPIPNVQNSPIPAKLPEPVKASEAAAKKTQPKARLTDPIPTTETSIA

Consider `CC(C)(C)c1cnc(CSc2cnc(NC(=O)C3CCNCC3)s2)o1` [SNS-032], for which the ΔTm at 12.5 µM on BIKE is 1.11 °C; on GAK, 0.0467 °C; at MPSK1, 3.53 °C; on AAK1 it was 0.69 °C.
For `CN(c1ccccc1CNc1nc(Nc2ccc3c(c2)CC(=O)N3)ncc1C(F)(F)F)S(C)(=O)=O` [PF 431396] the same measures were 9.5 °C, 5.02 °C, 13.9 °C and 4.81 °C.
With `CCS(=O)(=O)N1CC(CC#N)(n2cc(-c3ncnc4[nH]ccc34)cn2)C1` [baricitinib], the ΔTm at 12.5 µM at BIKE turned out to be 10.2 °C; at GAK, 2.06 °C. The MPSK1 at MPSK1 (12.5 µM) was found to be 4.053 °C. For the same compound, the AAK1 at AAK1 (12.5 µM) was found to be 8.293 °C.
As for `Cc1ccc(F)c(NC(=O)Nc2ccc(-c3cccc4[nH]nc(N)c34)cc2)c1` [Linifanib], the ΔTm at 12.5 µM at BIKE was found to be 5.72 °C; on GAK it was 2.49 °C; at MPSK1 it was 5.04 °C; at AAK1, 1.96 °C.
In the case of `C[C@@]1(C(=O)Nc2ccc(F)nc2)CCCN1c1nc(Nc2cc(C3CC3)n[nH]2)c2cccn2n1` [BMS-754807], the ΔTm at 12.5 µM is 2.91 °C on BIKE, -0.337 °C on GAK, 5.21 °C on MPSK1 and 0.483 °C on AAK1.
For `Cc1c(CN2CCN(C(=O)[C@H](C)O)CC2)sc2c(N3CCOCC3)nc(-c3cnc(N)nc3)nc12` [Apitolisib] the same measures were 1.55 °C, 0.847 °C, 3.51 °C and 1.4 °C.
Consider `Cc1cnc(Nc2ccc(F)cc2Cl)nc1-c1c[nH]c(C(=O)N[C@H](CO)c2cccc(Cl)c2)c1` [VX-11E], for which the ΔTm at 12.5 µM was 0.147 °C at BIKE, -1.45 °C on GAK, 0.627 °C at MPSK1 and -0.203 °C at AAK1.
For `Cc1[nH]c(/C=C2\C(=O)Nc3ccccc32)c(C)c1CCC(=O)O` [Orantinib] the same measures were 12 °C, 3.99 °C, 5.87 °C and 6.55 °C.
Consider `COc1ccc(-c2cc3c(C)nc(N)nc3n([C@H]3CC[C@H](OCCO)CC3)c2=O)cn1` [PF-04691502], for which the ΔTm at 12.5 µM is 0.623 °C at BIKE, -0.593 °C at GAK, 1.43 °C on MPSK1 and 0.327 °C on AAK1.
On the same counts, the results for `COc1cc2c(Oc3ccc4[nH]c(C)cc4c3F)ncnc2cc1OCCCN1CCCC1` [Cediranib] are 1.58 °C, 0.667 °C, 1.03 °C and 0.543 °C.
With `Cc1cc(Nc2nc(N[C@@H](C)c3ncc(F)cn3)ncc2Cl)[nH]n1` [AZD1480], the ΔTm at 12.5 µM is 6.41 °C on BIKE, 0.667 °C on GAK, 5.04 °C on MPSK1 and 4.44 °C at AAK1.
For `CC(C)NC[C@@H](C(=O)N1CCN(c2ncnc3c2[C@H](C)C[C@H]3O)CC1)c1ccc(Cl)cc1` [Ipatasertib] the same measures were 0.34 °C, -0.727 °C, 0.84 °C and 0.3 °C.
Regarding `Cc1cn(-c2cc(NC(=O)c3ccc(C)c(Nc4nccc(-c5cccnc5)n4)c3)cc(C(F)(F)F)c2)cn1` [Nilotinib], the ΔTm at 12.5 µM worked out at 1.06 °C at BIKE, 5.36 °C at GAK, 2.48 °C at MPSK1 and 1.13 °C on AAK1.
On the same counts, the results for `CC1(COc2ccc3c(c2)ncn3-c2ccc3cccc(N4CCC(N)CC4)c3n2)COC1` [Crenolanib] are 12 °C, 3.73 °C, 4.1 °C and 4.66 °C.
Consider `C[C@@H](Oc1cc(-c2cnn(C3CCNCC3)c2)cnc1N)c1c(Cl)ccc(F)c1Cl` [Crizotinib], for which the ΔTm at 12.5 µM at BIKE was 7.44 °C; on GAK, -0.44 °C; on MPSK1 it was 1.95 °C; at AAK1 it was 3.01 °C.

Values taken from paper PMC4780864, “Family-wide Structural Analysis of Human Numb-Associated Protein Kinases” (Structure(London, England:1993), 2016).
